Publication PMC7367283, “A PIP2 substitute mediates voltage sensor-pore coupling in KCNQ activation” (Communications Biology, 2020)
“And” between values parts separate entries of the source, which are not always exact repeats. Equal values may be shown once.

Experiments:
Assay in all cases: Two-electrode voltage clamp of mutant KCNQ1 in Xenopus oocytes
Assay type in all cases: cell-based
KCNQ1 W248R = KCNQ1 W248R (Homo sapiens, UniProt P51787, W248R); details: 10 µM CP1, individual oocytes
Text: (§1) In a previous study, mutation of residues in the predicted PIP2-binding site reduced KCNQ1 currents. CP1 modifies voltage-dependent activation of KCNQ1 channels by shifting the voltage dependence of channel opening, measured as the voltage dependence of the conductance (G–V) relationship, to more negative voltages (Fig. 1c) among other characteristics (see below). We made mutations to the residues around the CP1-interacting pocket as indicated by molecular docking (Fig. 1b), and examined the effects of the mutations on the CP1-induced shift of the G–V relationship. The mutations of the KCNQ1 residues that interact with CP1 in docking simulations reduced the shift of the G–V relationship (Fig. 1c, d), supporting the interaction of these residues with CP1.
(§2) Complementary DNA (cDNA) encoding human KCNQ1 (UniProtKB/Swiss‐Prot under accession no. P51787), KCNQ2 (O43526), KCNQ3 (O43525), KCNE1 (P15382), Kir1.1 (P48048), hERG (Q12809), KV4.2 (Q63881), NaV1.5 (Q14524), NaV β1 (Q07699), CaV1.2 (Q13936), CaV β1a (Q02641), CaV α2/δ1 (P54289), and HCN4 (Q9Y3Q4) were subcloned into oocyte expression vectors, respectively. Site-directed mutations of the KCNQ1 channel were all produced by overlap extension polymerase chain reaction (PCR) with high-fidelity Pfu polymerase (Stratagene, CA). The presence of the desired mutation was verified by sequencing the PCR-amplified regions. All the primer sequences used in this study are available in Supplementary Table 1. The complementary RNA (cRNA) of all these channels and mutations was transcribed in vitro with the T3, T7, or SP6 polymerase mMessage mMachine kit (Invitrogen, Thermo Fisher Scientific, MO).
(§3) The use of Xenopus laevis to obtain oocytes was approved by the Washington University Animal Studies Committee (protocol #20190030). Oocytes were manually dispersed and digested with collagenase (0.5 mg/ml, Sigma-Aldrich, Saint Louis, MO) to remove the follicle cell layer. Stage V or VI oocytes were selected and injected with cRNAs (9.2 ng) of channel or mutations. Especially, to characterize IKs, a mix of cRNAs at a molar ratio 4:1 (KCNQ1:KCNE1) was injected. For KCNQ2/KCNQ3, the molar ratio was 1:1 (KCNQ2:KCNQ3). For sodium channels, a 3:1 molar ratio (β1:NaV1.5) and for calcium channels a weight ratio 1:1:1 (β1:α2/δ1:CaV1.2) was injected, respectively. Injected oocytes were incubated in ND96 solution containing (in mM) 96 NaCl, 2 KCl, 1.8 CaCl2, 1 MgCl2, and 5 HEPES, pH 7.6, supplemented with 2.5 mM Na pyruvate and 1% penicillin–streptomycin, at 18 °C for 3–7 days before recording.
(§4) The whole-oocyte ionic currents were recorded with a GeneClamp 500B amplifier (Axon Instruments, CA) or iTEV90 amplifier (HEKA, Germany) and then sampled at 1 kHz and low-pass-filtered at 2 kHz. The Patchmaster software (HEKA, Germany) was used to acquire data. The Kir1.1 current was recorded with a high K^+ bath solution containing (in mM) 96 KCl, 4 NaCl, 1 CaCl2, 2 MgCl2, and 10 HEPES, pH 7.3–7.4. The HCN4 current was recorded in ND66 solution containing (in mM) 66 NaCl, 32 KCl, 1.8 CaCl2, 1 MgCl2, and 5 HEPES, pH 7.6. All the other potassium channels were recorded in ND96 solution. The currents of CaV1.2 channel were recorded in 40 mM Ba^2+ bath solution containing (in mM) 40 Ba(OH)2, 50 TEA-OH, 2 KOH, and 5 HEPES, adjusted to pH 7.4 with methanesulfonic acid. CP1 (DISODIUM 5-BROMO-2-[9-CHLORO-3-(SULFONATOOXY) NAPHTHO [1,2-B] THIEN-2-YL]-1H-INDOL-3-YL SULFATE, Sigma-Aldrich, MO) and Chromanol 293B (Sigma-Aldrich, MO) were dissolved in bath solutions. All the chemicals were purchased from Sigma-Aldrich. To measure the I–V relations of the Kir1.1 channel, the test voltage was set from −100 to +60 mV for 1 s with 20-mV increments. The test pulses were stepped from a holding potential of 0 mV and then stepped back to 0 mV. The HCN4 currents were recorded by a test pulse between −30 and −140 mV in 10-mV step from a holding potential of −30 mV. […]

KCNQ1 K354A/K358A = KCNQ1 K354A/K358A (Homo sapiens, UniProt P51787, K354A/K358A)
Text: as §1, §2, §3, §4

KCNQ1 R243A/R249A = KCNQ1 R243A/R249A (Homo sapiens, UniProt P51787, R243A/R249A); details: 10 µM CP1, individual oocytes
Text: as §1, §2, §3, §4

KCNQ1 K354A = KCNQ1 K354A (Homo sapiens, UniProt P51787, K354A)
Text: as §1, §2, §3, §4

KCNQ1 K358A = KCNQ1 K358A (Homo sapiens, UniProt P51787, K358A)
Text: as §1, §2, §3, §4

- ∆V1/2 (KCNQ1 W248R): 27.0173 mV and 42.5898 mV and 38.6048 mV
- G/Gmax (KCNQ1 K354A/K358A; 10 µM CP1, 0 mV): 0.9071
- G/Gmax (KCNQ1 K354A/K358A; 10 µM CP1, 10 mV): 0.9519
- G/Gmax (KCNQ1 K354A/K358A; 10 µM CP1, 20 mV): 0.9897
- G/Gmax (KCNQ1 K354A/K358A; 10 µM CP1, 30 mV): 1.0000
- G/Gmax (KCNQ1 K354A/K358A; 10 µM CP1, -10 mV): 0.8497
- G/Gmax (KCNQ1 K354A/K358A; 10 µM CP1, -20 mV): 0.7541
- G/Gmax (KCNQ1 K354A/K358A; 10 µM CP1, -30 mV): 0.6165
- G/Gmax (KCNQ1 K354A/K358A; 10 µM CP1, -40 mV): 0.4576
- G/Gmax (KCNQ1 K354A/K358A; 10 µM CP1, -50 mV): 0.3124
- G/Gmax (KCNQ1 K354A/K358A; 10 µM CP1, -60 mV): 0.2094
- G/Gmax (KCNQ1 K354A/K358A; 10 µM CP1, -70 mV): 0.1390
- G/Gmax (KCNQ1 K354A/K358A; 10 µM CP1, -80 mV): 0.0950
- G/Gmax (KCNQ1 K354A/K358A; 10 µM CP1, -90 mV): 0.0670
- G/Gmax (KCNQ1 K354A/K358A; 10 µM CP1, -100 mV): 0.0415
- G/Gmax (KCNQ1 K354A/K358A; 10 µM CP1, -110 mV): 0.0111
- G/Gmax (KCNQ1 K354A/K358A; 10 µM CP1, -120 mV): 0.0033
- G/Gmax (KCNQ1 K354A; 10 µM CP1, -10 mV): 1.0000
- G/Gmax (KCNQ1 K354A; 10 µM CP1, -20 mV): 0.9896
- G/Gmax (KCNQ1 K354A; 10 µM CP1, -30 mV): 0.9492
- G/Gmax (KCNQ1 K354A; 10 µM CP1, -40 mV): 0.8838
- G/Gmax (KCNQ1 K354A; 10 µM CP1, -50 mV): 0.7639
- G/Gmax (KCNQ1 K354A; 10 µM CP1, -60 mV): 0.6020
- G/Gmax (KCNQ1 K354A; 10 µM CP1, -70 mV): 0.4417
- G/Gmax (KCNQ1 K354A; 10 µM CP1, -80 mV): 0.3190
- G/Gmax (KCNQ1 K354A; 10 µM CP1, -90 mV): 0.2082
- G/Gmax (KCNQ1 K354A; 10 µM CP1, -100 mV): 0.1212
- G/Gmax (KCNQ1 K354A; 10 µM CP1, -110 mV): 0.0566
- G/Gmax (KCNQ1 K354A; 10 µM CP1, -120 mV): 0.0000
- G/Gmax (KCNQ1 K358A; 10 µM CP1, 0 mV): 0.9554
- G/Gmax (KCNQ1 K358A; 10 µM CP1, 10 mV): 0.9870
- G/Gmax (KCNQ1 K358A; 10 µM CP1, 20 mV): 1.0000
- G/Gmax (KCNQ1 K358A; 10 µM CP1, -10 mV): 0.8985
- G/Gmax (KCNQ1 K358A; 10 µM CP1, -20 mV): 0.8248
- G/Gmax (KCNQ1 K358A; 10 µM CP1, -30 mV): 0.7348
- G/Gmax (KCNQ1 K358A; 10 µM CP1, -40 mV): 0.6300
- G/Gmax (KCNQ1 K358A; 10 µM CP1, -50 mV): 0.5260
- G/Gmax (KCNQ1 K358A; 10 µM CP1, -60 mV): 0.4207
- G/Gmax (KCNQ1 K358A; 10 µM CP1, -70 mV): 0.3286
- G/Gmax (KCNQ1 K358A; 10 µM CP1, -80 mV): 0.2595
- G/Gmax (KCNQ1 K358A; 10 µM CP1, -90 mV): 0.1953
- G/Gmax (KCNQ1 K358A; 10 µM CP1, -100 mV): 0.1209
- G/Gmax (KCNQ1 K358A; 10 µM CP1, -110 mV): 0.0580
- G/Gmax (KCNQ1 K358A; 10 µM CP1, -120 mV): 0.0105
SMILES: O=S(=O)([O-])Oc1c(-c2sc3c(ccc4cccc(Cl)c43)c2OS(=O)(=O)[O-])[nH]c2ccc(Br)cc12.[Na+].[Na+] [CP1, DISODIUM 5-BROMO-2-[9-CHLORO-3-(SULFONATOOXY) NAPHTHO [1,2-B] THIEN-2-YL]-1H-INDOL-3-YL SULFATE]
- ∆V1/2 (KCNQ1 K354A/K358A; 10 µM CP1, individual oocytes): 24.6605 mV and 42.476 mV and 38.8398 mV and 35.894 mV
- ∆V1/2 (KCNQ1 R243A/R249A): 58.531 mV and 59.5008 mV and 36.2737 mV and 44.7577 mV
- ∆V1/2 (KCNQ1 K354A; 10 µM CP1, individual oocytes): 42.6379 mV and 47.4781 mV and 37.0916 mV and 51.9279 mV and 26.7588 mV
- ∆V1/2 (KCNQ1 K358A; 10 µM CP1, individual oocytes): 15.3181 mV and 41.4752 mV and 28.1195 mV and 31.8534 mV and 36.2122 mV and 21.5083 mV and 28.8875 mV
